Activity calls are given as the source filed them. No cut-off for these calls is given here.
Experiments:
PC-12 [1] = assay: Induction of neurite outgrowth in rat PC12 cells at 100 uM after 2 days by phase-contrast microscopy; type: functional, cell-based
HeLa = assay: Cytotoxicity against human HeLa cells at 50 ug/mL after 3 days by MTT assay; type: functional, cell-based
[2] = Inhibition of Na(+)/K(+) ATPase
PC-12 [3] = assay: Induction of neurite outgrowth in rat PC12 cells; type: functional, cell-based

Activity [2]	Structure (SMILES)	Activity (PC-12 [1])	Activity (HeLa)	Activity (PC-12 [3])
	C=C1CO[C@H]2[C@@H]3C(=O)C[C@@H](C(C)C)[C@]3(C)C[C@H]3OC(=O)C[C@@]3(C)[C@@]12O	Active	inactive	
Active	O=C(O)/C(=C1/OCO/C1=C(/C(=O)O)c1ccccc1)c1ccccc1			
	CO[C@H]1[C@H]2[C@@H](O)O[C@@H]1[C@]1(C)CC[C@@]3(C(=O)O)CCC(C(C)C)=C3[C@H]1C[C@H]2OC			inactive
	CC(C)C1=C2[C@H]3CC=C(C=O)CC(=O)[C@]3(C)CC[C@@]2(C(=O)O)CC1			inactive
	C=C(CO)[C@]12C=C3C(=O)C[C@@H](C(C)C)[C@]3(C)C[C@@H](O)[C@@]1(C)CC(=O)O2	Active	inactive	
	C=C(CO)[C@@]1(O)C=C2C(=O)C[C@@H](C(C)C)[C@]2(C)C[C@H]2OC(=O)C[C@]21C	Active	inactive	

Source: ChEMBL document CHEMBL1147264, “Tricholomalides A-C, new neurotrophic diterpenes from the mushroom Tricholoma sp” (J Nat Prod, 2003)
